Columns and labels:
Format in all cases: in vivo
[1] = tested on: Tetranychus urticae (OP-resistant strain), 2-spotted spider mite (TSM); assay: 2-spotted spider mite (TSM) plant dip test; design: key: 0 = no effect; 1 = 10-25% kill; 2 = 26-35% kill; 3 = 36-45% kill; 4 = 46-55% kill; 5 = 56-65% kill; 6 = 66-75% kill; 7 = 76-85% kill; 8 = 86-99% kill; 9 = 100% kill; conditions: mortality after 2 days
Protocol: (§1) Test solutions are prepared by dissolving the test compound in a 35% acetone in water mixture to give a concentration of 10,000 ppm. Subsequent dilutions are made with water as needed.
Tetranychus urticae (OP-resistant strain), 2-spotted Spider Mite (TSM)
Sieva lima bean plants with primary leaves expanded to 7-8 cm are selected and cut back to one plant per pot. A small piece is cut from an infested leaf taken from the main colony and placed on each leaf of the test plants. This is done about 2 hours before treatment to allow the mites to move over to the test plant to lay eggs. The size of the cut, infested leaf is varied to obtain about 100 mites per leaf. At the time of test treatment, the piece of leaf used to transfer the mites is removed and discarded. The newly-infested plants are dipped in the test solution for 3 seconds with agitation and set in the hood to dry. After 2 days, one leaf is removed and mortality counts are made.

[2] = tested on: Diabrotica undecimpunctata howardi, eggs-southern corn rootworm (SCR-Eggs); assay: Southern corn rootworm eggs (SCR-Eggs) treated diet test; design: key: 0 = no effect; 1 = 10-25% kill; 2 = 26-35% kill; 3 = 36-45% kill; 4 = 46-55% kill; 5 = 56-65% kill; 6 = 66-75% kill; 7 = 76-85% kill; 8 = 86-99% kill; 9 = 100% kill; conditions: mortality after 7 days
Protocol: Test solutions are prepared by dissolving the test compound in a 35% acetone in water mixture to give a concentration of 10,000 ppm. Subsequent dilutions are made with water as needed. Spodoptera eridania, Eggs-southern Armyworm and Diabrotica undecimpunctata howardi, Eggs-southern Corn Rootworm (SAW-Eggs) and (SCR-Eggs) Wells containing artificial diet are treated with the test solutions and dried. The appropriate insect eggs are then placed in the wells. The wells are covered with vented, adhesive, clear plastic covers. After 7 days, mortality counts are made. [table]

[3] = tested on: Aphis gossypii, cotton aphid (CA); assay: Cotton aphid (CA) cotyledon dip test; design: key: 0 = no effect; 1 = 10-25% kill; 2 = 26-35% kill; 3 = 36-45% kill; 4 = 46-55% kill; 5 = 56-65% kill; 6 = 66-75% kill; 7 = 76-85% kill; 8 = 86-99% kill; 9 = 100% kill; conditions: mortality after 5 days
Protocol: Test solutions are prepared by dissolving the test compound in a 35% acetone in water mixture to give a concentration of 10,000 ppm. Subsequent dilutions are made with water as needed. Aphis gossypii, Cotton Aphid (CA) Cotton plants at the cotyledon stage are selected and cut back to one plant per pot. A heavily infested leaf is taken from the main colony and placed on top of each cotyledon. The aphids are allowed to transfer to the host plant overnight. At the time of test treatment, the leaf used to transfer the aphids is removed and discarded. The cotyledons are dipped in the test solution and allowed to dry. After 5 days, mortality counts are made. [table]

[4] = tested on: Spodoptera eridania, 2nd instar larvae, southern armyworm (SAW); assay: Southern armyworm (SAW) leaf dip test; design: key: 0 = no effect; 1 = 10-25% kill; 2 = 26-35% kill; 3 = 36-45% kill; 4 = 46-55% kill; 5 = 56-65% kill; 6 = 66-75% kill; 7 = 76-85% kill; 8 = 86-99% kill; 9 = 100% kill
Protocol: as §1
Spodoptera eridania, 2nd Instar Larvae, Southern Armyworm (SAW)
A Sieva lima bean leaf expanded to 7-8 cm in length is dipped in the test solution with agitation for 3 seconds and allowed to dry in a hood. The leaf is then placed in a 100×10 mm petri dish containing a damp filter paper on the bottom and ten 2nd instar caterpillars. At 5 days, observations are made of mortality, reduced feeding, or any interference with normal molting.

[5] = tested on: M. incognita (Root Knot Nematode) larvae; assay: Evaluation of test compounds against M. incognita larvae in microtiter plate wells (movement score); conditions: larvae scored for movement after 20-24 hours; note: key: A score of '9' indicates inactive worms with a straight, sticklike morphology; A score of '8' indicates inactive worms with a limp, curled or curved morphology; A score of '7' indicates dead/paralyzed worms after 72 hours
Protocol: Evaluation of Test Compounds Against M. incognita (Root Knot Nematode)
Newly emerged M. incognita larvae are suspended in S Medium (buffered salt solution) to a concentration of 50-65 worms per 50 μl. 50 μl of the worm suspension are pipetted into microtiter plate wells containing the test compounds. The plates are then covered with plactic plate sealers to reduce loss of volume by evaporation. After 20-24 hours of incubation, the larvae are scored for movement. Wells containing obviously dead/paralyzed larvae are scored as positive. […] A score of “7” indicates dead/paralyzed worms after […].

[6] = tested on: Diabrotica virgifera virgifera Leconte, 2nd instar western corn rootworm (WCR); assay: Western corn rootworm (WCR) soil test; design: key: 0 = no effect; 1 = 10-25% kill; 2 = 26-35% kill; 3 = 36-45% kill; 4 = 46-55% kill; 5 = 56-65% kill; 6 = 66-75% kill; 7 = 76-85% kill; 8 = 86-99% kill; 9 = 100% kill
Protocol: Test solutions are prepared by dissolving the test compound in a 35% acetone in water mixture to give a concentration of 10,000 ppm. Subsequent dilutions are made with water as needed. Diabrotica virgifera virgifera Leconte, 2nd Instar Western Corn Rootworm (WCR) One cc of fine talc is placed in a 30 mL wide-mouth screw-top glass jar. One mL of the appropriate acetone test solution is pipetted onto the talc so as to provide 1.25 mg of active ingredient per jar. The jars are set under a gentle air flow until the acetone is evaporated. The dried talc is loosened, 1 cc of millet seed is added to serve as food for the insects and 25 mL of moist soil is added to each jar. The jar is capped and the contents thoroughly mixed mechanically. Following this, ten 2nd instar rootworms are added to each jar and the jars are loosely capped to allow air exchange for the larvae. The treatments are held for 5 days when mortality counts are made. Missing larvae are presumed dead, since they decompose rapidly and cannot be found. The concentrations of active ingredient used in this test correspond approximately to 50 kg/ha. [table]

[7] = tested on: C. elegans (Bristol strain); assay: Evaluation of test compounds against C. elegans (motility, 96-well plate); design: key: 9=complete kill in 4 hours; 8=complete kill in 24 hours; 7=markedly reduced motility in approximately 95% of worms in 24 hours; 0=normal motility, same as controls; conditions: motility at 4 and 24 hours
Protocol: Evaluation of Test Compounds Against C. elegans Cultures of C. elegans (Bristol strain from J. Lewis) are maintained on E. coli lawns on NG Agar Plates at 20° C. New cultures are established weekly. Nematodes for testing are washed from cultures using Na buffer. Compounds are dissolved in 80% acetone. The test material is micropipetted (25 μl) into a single well of a 96-well sterile tissue culture plate and the solvent allowed to evaporate. A freshly prepared volume (50 μl) of C. elegans in Na buffer is micropipetted into each treated well and several control wells per plate. Plates are incubated at 20° C. Observations for efficacy are made under a dissecting microscope at 4 and 24 hours post-immersion. Immediately prior to reading the plate, it is gently tapped to stimulate the movement of the worms. Activity is judged subjectively, but semi-quantitatively, based on the drug effects on motility of the adults and larvae.

Row | Structure (SMILES) | TSM (300 ppm) rating [1] | SCR Eggs (1000 ppm) rating [2] | CA (300 ppm) rating [3] | SAW (300 ppm) rating [4] | M. incognita (150 ppm) score [5] | WCR (50 ppm) rating [6] | Rating Against C. elegans (150 ppm) [7]
1 | CCCCC(CC)COC(=O)CSC(C[N+](=O)[O-])c1ccccc1Cl (racemic) [Example 92] | 0 | 0 | 0 | 0 | 0 | 5 (5 = 56-65% kill) | 0
2 | O=[N+]([O-])CC(SCc1ccccc1)c1ccccc1Cl (racemic) [Example 93] | 0 | 0 | 0 | 0 | 0 | 0 | 0
3 | CCCSC(C[N+](=O)[O-])c1ccccc1Cl (racemic) [Example 94] | 0 | 0 | 0 | 0 | 0 | 0 | 0
4 | C=CCSC(C[N+](=O)[O-])c1ccccc1Cl (racemic) [Example 95] | 0 | 0 | 0 | 0 | 0 | 4 (4 = 46-55% kill) | 0
5 | O=C(O)CSC(C[N+](=O)[O-])c1ccccc1Cl (racemic) [Example 96] | 0 | 0 | 0 | 0 | 9 | 0 | 9
6 | CC(C)c1ccc(C(C[N+](=O)[O-])SCc2ccccc2)cc1 (stereo not drawn) [Example 36] | 0 | 7 (7 = 76-85% kill) | 0 | 1 (1 = 10-25% kill) | 0 | 0 | 0
7 | CCCSC(C[N+](=O)[O-])c1ccc(C(C)C)cc1 (stereo not drawn) [Example 37] | 0 | 0 | 0 | 0 | 0 | 0 | 0
8 | C=CCSC(C[N+](=O)[O-])c1ccc(C(C)C)cc1 (stereo not drawn) [Example 38] | 0 | 9 (9 = 100% kill) | 0 | 0 | 0 | 0 | 0
9 | COC(=O)CSC(C[N+](=O)[O-])c1ccccc1F (stereo not drawn) [Example 39] | 0 | 0 | 0 | 4 (4 = 46-55% kill) | 9 | 8 (8 = 86-99% kill) | 9
10 | CCOC(=O)CSC(C[N+](=O)[O-])c1ccc(Cl)cc1 (stereo not drawn) [Example 71] | 0 |  | 0 | 0 | 0 | 0 | 7
11 | CCCCOC(=O)CSC(C[N+](=O)[O-])c1ccc(Cl)cc1 (stereo not drawn) [Example 72] | 0 |  | 0 | 0 | 0 | 0 | 0
12 | CC(C)CCCCCOC(=O)CSC(C[N+](=O)[O-])c1ccc(Cl)cc1 (stereo not drawn) [Example 73] | 0 |  | 0 | 0 | 0 | 0 | 0
13 | CCCCC(CC)COC(=O)CSC(C[N+](=O)[O-])c1ccc(Cl)cc1 (stereo not drawn) [Example 74] | 0 |  | 0 | 0 | 0 | 0 | 0
14 | O=[N+]([O-])CC(SCc1ccccc1)c1ccc(Cl)cc1 (stereo not drawn) [Example 75] | 0 |  | 0 | 0 | 0 | 0 | 0
15 | CCCSC(C[N+](=O)[O-])c1ccc(Cl)cc1 (stereo not drawn) [Example 76] | 0 |  | 0 | 0 | 0 | 0 | 7
16 | O=C(O)CSC(C[N+](=O)[O-])c1ccc(Cl)cc1 (stereo not drawn) [Example 78] | 0 |  | 0 | 0 | 9 | 0 | 7
17 | COC(=O)CSC(C[N+](=O)[O-])c1ccccc1Cl (stereo not drawn) [Example 88] | 0 | 0 | 0 | 0 | 8 | 0 | 

Source: patent US6358883B1, “Pesticidal and parasiticidal use of 1-aryl-1-(substituted thio, sulfinyl and sulfonyl)-2-nitroethane compounds” (American Cyanamid Company, priority 1998, dated 2002)
